According to the NIST ThermoML archive (doi:10.1021/je060271a):
Numbers after ± are expanded uncertainties.

Settings: 323.15 K, Liquid, Vibrating tube method

Measured: mass density

CCCCCCC(=O)OCC(COC(=O)CCCCCC)(COC(=O)CCCCCC)COC(=O)CCCCCC [pentaerythritol tetraheptanoate]
969.4 ± 1.2 kg/m3: 21039 kPa
966.7 ± 1.2 kg/m3: 16900 kPa | 16913 kPa
966.8 ± 1.2 kg/m3: 16877 kPa | 17014 kPa | 17028 kPa | 17095 kPa | 17108 kPa
968.3 ± 1.2 kg/m3: 19273 kPa | 19289 kPa | 19303 kPa | 19334 kPa | 19351 kPa | 19366 kPa | 19440 kPa | 19457 kPa | 19489 kPa | 19503 kPa | 19564 kPa | 19579 kPa
969.1 ± 1.2 kg/m3: 20564 kPa | 20631 kPa | 20667 kPa | 20700 kPa | 20737 kPa | 20771 kPa | 20808 kPa | 21022 kPa
969 ± 1.2 kg/m3: 20258 kPa | 20426 kPa | 20444 kPa | 20460 kPa | 20496 kPa | 20512 kPa | 20528 kPa | 20544 kPa | 20580 kPa | 20596 kPa | 20648 kPa
968.5 ± 1.2 kg/m3: 19629 kPa | 19644 kPa | 19659 kPa | 19674 kPa | 19688 kPa | 19706 kPa | 19721 kPa | 19738 kPa | 19769 kPa | 19787 kPa | 19802 kPa | 19816 kPa | 19834 kPa | 19850 kPa | 19898 kPa | 19977 kPa | 19995 kPa
967.9 ± 1.2 kg/m3: 18524 kPa | 18550 kPa | 18634 kPa | 18692 kPa | 18704 kPa | 18721 kPa | 18734 kPa | 18747 kPa | 18761 kPa | 18833 kPa | 18993 kPa
968.1 ± 1.2 kg/m3: 18889 kPa | 18977 kPa | 19007 kPa | 19021 kPa | 19037 kPa | 19064 kPa | 19096 kPa | 19140 kPa | 19154 kPa | 19168 kPa | 19182 kPa | 19228 kPa
967.1 ± 1.2 kg/m3: 17307 kPa | 17412 kPa | 17451 kPa | 17462 kPa | 17621 kPa
967.2 ± 1.2 kg/m3: 17437 kPa | 17474 kPa | 17485 kPa | 17499 kPa | 17536 kPa | 17548 kPa | 17573 kPa | 17596 kPa | 17610 kPa | 17633 kPa | 17647 kPa | 17822 kPa
967.8 ± 1.2 kg/m3: 18537 kPa | 18579 kPa | 18608 kPa | 18621 kPa | 18650 kPa | 18663 kPa | 18676 kPa | 18777 kPa
967.6 ± 1.2 kg/m3: 18132 kPa | 18186 kPa | 18565 kPa
966.9 ± 1.2 kg/m3: 16890 kPa | 17038 kPa | 17062 kPa | 17072 kPa | 17084 kPa | 17131 kPa | 17153 kPa | 17188 kPa | 17201 kPa | 17258 kPa
967.5 ± 1.2 kg/m3: 17976 kPa | 18029 kPa | 18041 kPa | 18053 kPa | 18066 kPa | 18080 kPa | 18107 kPa | 18119 kPa | 18146 kPa | 18159 kPa
968 ± 1.2 kg/m3: 18790 kPa | 18803 kPa | 18820 kPa | 18848 kPa | 18862 kPa | 18876 kPa | 18906 kPa | 18950 kPa | 19081 kPa | 19124 kPa
968.9 ± 1.2 kg/m3: 20175 kPa | 20209 kPa | 20240 kPa | 20293 kPa | 20344 kPa | 20359 kPa | 20375 kPa | 20390 kPa | 20410 kPa | 20476 kPa
968.4 ± 1.2 kg/m3: 19394 kPa | 19411 kPa | 19425 kPa | 19472 kPa | 19597 kPa | 19611 kPa
969.2 ± 1.2 kg/m3: 20684 kPa | 20720 kPa | 20755 kPa | 20791 kPa | 20824 kPa | 20841 kPa | 20914 kPa | 20985 kPa
968.6 ± 1.2 kg/m3: 19754 kPa | 19864 kPa | 19928 kPa | 19947 kPa | 20026 kPa | 20075 kPa
968.8 ± 1.2 kg/m3: 20094 kPa | 20125 kPa | 20141 kPa | 20159 kPa | 20193 kPa | 20224 kPa | 20274 kPa | 20309 kPa | 20325 kPa
967.4 ± 1.2 kg/m3: 17746 kPa | 17836 kPa | 17899 kPa | 17962 kPa | 17989 kPa | 18016 kPa | 18092 kPa
969.3 ± 1.2 kg/m3: 20861 kPa | 20877 kPa | 20894 kPa | 20931 kPa
968.2 ± 1.2 kg/m3: 19051 kPa | 19199 kPa | 19213 kPa | 19245 kPa | 19259 kPa | 19320 kPa | 19380 kPa
967.3 ± 1.2 kg/m3: 17559 kPa | 17584 kPa | 17760 kPa | 17772 kPa | 17810 kPa | 17848 kPa | 17861 kPa | 17873 kPa
967 ± 1.2 kg/m3: 17049 kPa | 17119 kPa | 17142 kPa | 17164 kPa | 17177 kPa | 17212 kPa | 17247 kPa | 17269 kPa | 17282 kPa | 17293 kPa | 17318 kPa | 17389 kPa | 17426 kPa | 17511 kPa
967.7 ± 1.2 kg/m3: 18594 kPa
966.6 ± 1.2 kg/m3: 16867 kPa
968.7 ± 1.2 kg/m3: 19882 kPa | 19913 kPa | 20044 kPa | 20059 kPa | 20109 kPa
